# Test results published in patent US9314439B2, “Composition and method for muscle repair and regeneration” (Thomas Jefferson University, priority 2010, dated 2016).
# Entries after “also recorded” stand apart in the source; their conditions may differ.
# Tests used:
# RXR receptors = settings: cited from earlier work
# [1] = test system: muscle defect in calf or anterior tibial muscles; assay: muscle defect mouse model, systemic or local administration of RAR agonist; type: in vivo; settings: for muscle repair: 100 μg/gavage/day at day 8, 10 and 12 from injury, 4 weeks after surgery
# Text: Histological Procedures. To inspect muscle tissue structure, samples were fixed in 4% PFA and embedded in paraffin. Five μm serial sections were stained by either H&E (http://www.ihcworld.com/_protocols/special_stains/HE_Mayer.htm) or Masson's trichrome staining solution (http://www.ihcworld.com/_protocols/special_stains/masson_trichrome.htm). To detect adipose tissue, 4% PFA fixed samples were equilibrated in 20% sucrose in PBS, embedded in OCT compound and then sectioned by cryostat. Ten μm cryosections were dried, rehydrated and then stained with Oil-red O (http://www.ihcworld.com/_protocols/special_stains/oil_ red o.htm).
# Immuno-Fluorescence. For the detection of various antigens in tissue sections, 5 μm paraffin sections were de-paraffinized, re-hydrated and then treated with 0.1% pepsin in 0.02 N HCl for 15 min at 37° C. Sections were washed three times in PBS-T and blocked in 10% normal goat serum with 0.3% BSA. Sections were incubated with 1st antibody, washed three times with PBS-T and then incubated with 2nd antibody. The list of antigens, antibodies and their dilutions are shown below.
# Local and Systemic Administration of RAR Agonist. Systemic administration of RAR agonist was carried out by gavage as described previously (Shimono et al. J. Orthop. Res. 28:271-277, 2010). Local delivery of RAR agonist was done by injecting RAR agonist (dissolved in DMSO) using Hamilton syringe 87943 with 26G needle.
# A muscle defect mouse model was used to investigate the muscle repair stimulation by administration of RAR gamma-agonists. A round-shaped defect was created with an electric cautery in calf or anterior tibial muscles in 8 week-old mice resulting in a 2.0 mm×2.0 mm×2.0 mm defect.
# Round-shaped defects were created in calf-muscle tissue of 8 weeks old mice as above (one muscle defect/mouse). […] Tissue was collected for histological analysis on day 14.
# […] Tissues were collected for histological analysis at 2 and 4 weeks. Macro-photos of injured muscle tissue collected from control and RAR gamma-agonist (CD1530)-treated mice were taken at 4 weeks after injury.
# Histological analysis of skeletal muscle tissue was performed 4 weeks after injury. Serial transverse sections of muscle tissue specimens collected 4 weeks after injury (same samples as discussed directly above) were stained with Masson's trichrome or processed for immuno-staining with antibodies to laminin (an extracellular protein abundant around muscle cells). […] To evaluate and quantify the changes of skeletal muscle tissue structure, images of trichrome-stained serial sections were taken and the relative amounts of muscle fiber, adipose and fibrous tissues were determined in multiple defined areas by ImagePro software. The analyzed areas were 9×9 grids each (about 3×3 mm) that included the original injured site (2×2 mm).
# The effects of various retinoid agonists on skeletal muscle repair were examined Macro photographs were taken of muscle injury sites at the 4-week time point.
# [2] = test system: mesenchymal stem cell line; assay: MyoD and Myf5 immunostaining in mesenchymal stem cell (MSC) cultures; type: cell-based; settings: 100 nM, 10 days
# Protocol: Cells from a mesenchymal stem cell line were cultured for 10 days in the presence or absence of RAR gamma-agonist (CD1530, 100 nM). Cultures were processed for immunostaining with MyoD or Myf5 antibodies or stained with nuclear dye DAPI. […] Results indicated an increase in MyoD and Myf5 levels by the RAR gamma-agonist in mesenchymal stem cell (MSC) cultures.
# [3] = test system: mouse bone marrow-derived mesenchymal stem cell (BMSC) cultures; assay: myogenic differentiation in mouse BMSC cultures; type: cell-based; settings: 7 days, 5% FBS DMEM
# Protocol: MSCs were isolated as described previously (ref) with minor modification. Briefly, mouse bone marrow cells (1−2×10^7) harvested from long bones of 4-6 weeks old mice were seeded onto 100-mm culture dishes, incubated for 3 hours at 37° C. to allow attachment of adherent cells, and then rinsed twice with PBS to remove the nonadherent cells. The bone marrow-derived MSCs formed adherent colonies after 12-15 days of culture. Primary cultures were passed to disperse the colony-forming cells (passage 1). The cells were then subcultured again when they reached 70% confluent. Cells were maintained in α-MEM (Gibco BRL; Invitrogen Corp.) containing 20% fetal bovine serum (FBS; Equitech-Bio Inc.), 2 mM L-glutamine, a combination of 100 U/ml penicillin and 100 μg/ml streptomycin (Biofluids Inc.), and 55 μM 2-mercaptoethanol (Gibco BRL; Invitrogen Corp.) before the first passage. After the first passage, cells were maintained in 10% FBS, α-MEM unless indicated.
# The differential effects of retinoid agonists on myogenic differentiation in mouse bone marrow-derived mesenchymal stem cell (BMSC) cultures were investigated. BMSCs were prepared from femurs and tibias of 6 week-old mice by standard methods and maintained in 5% FBS DMEM for 7 days in presence of 0.1% DMSO (vehicle: Control), 1 μM all-trans retinoic acid (RA) (commercially available from Sigma), 1 μM RAR alpha-agonist (obtained from NuRx Pharmaceuticals) or 30 nM RAR gamma-agonist (CD1530, commercially available).
# RAR subtypes = settings: cited from earlier work
# [4] = 100 ng on day 5, 7 and 9, 4 weeks after injury
# [5] = 300 μg by gavage on day 8, 10 and 12, 4 weeks after injury
# [6] = 300 μg/day by gavage on day 8, 10 and 12, 4 weeks after injury
# [7] = 900 μg by gavage on day 8, 10 and 12, 4 weeks after injury
smiles,measurement,setting,value
CC1=C(/C=C/C(C)=C\C=C\C(C)=C\C(=O)O)C(C)(C)CCC1 [9-cis retinoic acid],binding to the RXR receptors,RXR receptors,natural ligand
"O=C(O)c1ccc2cc(-c3ccc(O)c(C45CC6CC(CC(C6)C4)C5)c3)ccc2c1 [CD437, 6-(4-Hydroxy-3-tricyclo[3.3.1.13,7]dec-1-ylphenyl)-2-naphthalenecarboxylic acid]",muscle repair,[1],induced effective muscle repair
"O=C(O)c1ccc(-c2ccc3cc(O)c(C45CC6CC(CC(C6)C4)C5)cc3c2)cc1 [CD1530, 4-(6-Hydroxy-7-tricyclo[3.3.1.13,7]dec-1-yl-2-naphthalenyl)benzoic acid]",HE histology of muscle defect,"[1]; 100 ng on day 1, 3, 5, 7 and 9, 4 weeks after injury",decreased adipose and fibrous scar tissue formation but left a large indentation
same,HE histology of muscle defect,"[1]; 100 ng on day 1, 3 and 5, 4 weeks after injury",decreased adipose and fibrous scar tissue formation but left a large indentation
same,indentation at muscle defect,[1]; [4],much reduced indentation
same,quality and amount of newly formed muscle tissue,[1]; [4],best
same,repair of muscle defects after local administration,"[1]; 3 μg injected subcutaneously around the injury site on day 8 and 10, 4 weeks",almost completely repaired
same,macroscopic appearance of injury site,[1]; [5],almost no visible sign of the original defect; also recorded: essentially invisible
same,"tissue composition (relative amounts of muscle fiber, adipose and fibrous tissues, ImagePro)",[1]; [5],largely restored the tissue composition; also recorded: almost normal
same,anti-laminin staining of repair tissue,[1]; [6],stained strongly with anti-laminin antibodies
same,repair of muscle injury (Masson's trichrome sections),[1]; [6],almost completely repaired
same,"amount of adipose and fibrous tissue (histo-morphometric analysis, ImagePro)","[1]; Day 5-9 treated group, Masson's trichrome, FIG. 6",least amount of adipose and fibrous tissue among all injured groups
same,histological analysis of muscle defect,"[1]; anterior tibial muscle, 300 μg/day by gavage on day 8, 10 and 12, 2 and 4 weeks",filled with muscle fibers aligned along the major longitudinal axis of the anterior tibial muscle
same,myosin heavy chain (MHC) immunostaining of defect site,"[1]; calf muscle, 300 μg/day by gavage on day 8, 10 and 12, day 14",many of these cells were MHC positive
same,histology of muscle defect site,"[1]; calf muscle, 300 μg/day by gavage on day 8, 10 and 12 after injury, day 14",filled with many elongated muscle-like cells
same,HE histology of muscle defect,"[1]; treated at days 1-3, 4 weeks after injury",decreased adipose and fibrous scar tissue formation but left a partial defect
same,HE histology of muscle defect,"[1]; treated at days 5-7, 4 weeks after injury",completely filled with newly generated muscle fibers
same,Myf5 immunostaining,[2],clearly present
same,MyoD immunostaining,[2],clearly present
same,formation of elongated multinucleated muscle cells,[3]; 30 nM,Many elongated multinucleated muscle cells formed
CC1(C)CCC(C)(C)c2c1cc(C(=O)Nc1cc(F)c(C(=O)O)c(F)c1)c(O)c2Cl [NRX195183],macroscopic appearance of injury site,[1]; [7],still clearly visible as large whitish spots
same,tissue composition (histomorphometric quantification),[1]; [7],did not improve tissue composition
same,formation of elongated multinucleated muscle cells,[3]; 1 μM,formed only in RAR gamma-agonist treated cultures
"CC1(C)CCC(C)(C)c2cc(Cn3cccn3)c(/C=C/c3ccc(C(=O)O)cc3)cc21 [Palovarotene, 4-[(E)-2-[5,6,7,8-Tetrahydro-5,5,8,8-tetramethyl-3-(1H-pyrazol-1-ylmethyl)-2-naphthalenyl]-ethenyl]-benzoic acid]",muscle repair,[1],induced effective muscle repair
"CC1=C(/C=C/C(C)=C/C=C/C(C)=C/C(=O)O)C(C)(C)CCC1 [RA, all-trans retinoic acid]",fibrous tissue area,"[1]; 300 μg by gavage on day 8, 10 and 12, 4 weeks",significant increase of fibrous tissue area
same,macroscopic appearance of injury site,[1]; [5],still clearly visible as large whitish spots
same,muscle fiber area,"[1]; 300 μg by gavage on day 8, 10 and 12, 4 weeks, control 33%, normal 90%",54%
same,binding affinity to the three RAR subtypes,RAR subtypes,approximately equal affinity
same,binding to the RXR receptors,RXR receptors,does not bind
same,formation of elongated multinucleated muscle cells,[3]; 1 μM,formed only in RAR gamma-agonist treated cultures
